Laboratory results as given in patent US12150927B2, “Use of cannabidiolic acid in the treatment of autism spectrum disorder and associated disorders” (GW Research Limited, priority 2016, dated 2024).

Assays:
[1] = tested on: offspring of VPA-exposed rats; assay: Sociability and preference for social novelty, 3-chamber apparatus, rat VPA model; type: in vivo, Sprague-Dawley rats
Experimental: Pregnant Sprague-Dawley rats (Charles River, Calco, Italy), received a single intraperitoneal injection of 500 mg/kg sodium valproate on the 12.5 day after conception, and control females were injected with physiological saline at the same time. Sodium valproate (Sigma Aldrich, Milan, IT) was dissolved in saline at a concentration of 250 mg/ml.
CBDA was dissolved in ethanol, cremophor and saline (1:1:18). Symptomatic treatment with CBDA at doses of 2 and 20 mg/kg/day i.p. was performed starting from PND 34 (early adolescence) till 56 (early adulthood), both in male and female offspring of dams injected with VPA 500 mg/kg (or vehicle) on day 12.5 after conception. At PND 56, a series of behavioural tests was performed in order to assess the effect of chronic CBDA on sociability, social novelty, short-term memory, locomotion and stereotyped/repetitive behaviours.
Sociability and preference for social novelty: These behaviours were investigated in a 3-chamber apparatus which allows for the measurement of social approach and social preference. In brief, animals were placed into a novel arena (80 cm×31.5 cm) composed of three communicating chambers separated by Perspex walls with central openings allowing access to all chambers for 5 min.
Following this acclimatisation period, animals were briefly confined to the central chamber while an unfamiliar rat confined in a small wire cage was placed in one of the outer chambers. An identical empty wire cage was placed in the other chamber. […] Time spent engaging in investigatory behaviour with the rat was evaluated with the aid of Anymaze program (Ugo Basile, Italy) in order to examine social approach.
To investigate the preference for social novelty, a novel unfamiliar rat was then placed in the empty cage and the test animal was then allowed to explore the arena/chambers for a further 5 min. Time spent engaging in investigatory behaviour with the novel unfamiliar rat was evaluated with the aid of Anymaze program (Ugo Basile, Italy) in order to examine preference for social novelty.

MeCP2 KO mice = assay: Novel Object Recognition (NOR) test, short- and long-term memory, mouse model of Rett syndrome; type: in vivo
Experimental: Furthermore, the efficacy of CBDA in reverting/attenuating the short- and long-term memory deficits present in these mice was evaluated. The Novel Object Recognition (NOR) test was performed before the starting of the treatment Post Natal Day 28 (PND 28), at PND 41 when the first motor symptoms appear and at PND 56 and 66 when the disease is fully manifested.
At PND 28, 41, 56 and 66 the effect of CBDA on short- and long-term memory deficits was investigated through the Novel Object Recognition (NOR) test.
The experiment was performed as previously described (Zamberletti E. et al. 2014 and Kruk-Stomka M. et al. 2014).
The experimental apparatus used for the Novel Object Recognition test was an open-field box (43×43×32 cm) made of Plexiglas, placed in a dimly illuminated room. Animals performed each test individually.
Briefly, each animal was placed in the arena and allowed to explore two identical previously unseen objects for 10 minutes (familiarization phase). After an inter-trial interval of 30 minutes and 24 hours one of the two familiar objects was replaced by a novel, previously unseen object and mice were returned to the arena for the 10-minute test phase.
During the test phase the time spent exploring the familiar object (Ef) and the new object (En) was recorded separately by two observers blind to the groups and the discrimination index was calculated as follows: [(En−Ef)/(En+Ef)]×100.

Ube3am-/p+ (AS) mice [2] = assay: Novel object recognition, mouse model of Angelman syndrome; type: in vivo; details: CBDA 20 mg/kg i.p., age 7-8 weeks, vs AS vehicle
Experimental: (§1) Heterozygous mice with maternal deficiency of Ube3A (Ube3am−/p+) and wild type (Ube3am+/p+) were purchased from The Jackson Laboratory (Jackson code: B6.129S7-Ube3a tm1Alb/J) and maintained in a C57BL/6 background.
(§2) Drugs were dissolved in 1:1:18 ethanol:cremophor:0.9% saline, for intraperitoneal (i.p.) administration. Drug treatment was performed daily for 35 days. CBDA was administered at 20 mg/kg.
Novel Object Recognition: The novel object recognition assesses recognition memory in mice. The experiment started with the habituation period, during which mice were allowed to freely explore for 1 hour the apparatus which consists of a rectangular open box (40×30×30 cm width×length×height) made of grey polyvinyl chloride (PVC) illuminated by a dim light. The day after each mouse was allowed to explore two identical objects positioned in the back left and right corners for 5 min (acquisition). A video camera recorded the time spent on exploration of each object. […] The behaviour of mice was analyzed by an observer blind to the treatment. Data are expressed as percentage of recognition index (RI %), which was calculated as the percentage of the time spent exploring the novel object/time spent exploring the novel object+time spent exploring the familiar object×100.

Ube3am-/p+ (AS) mice [3] = assay: Tail suspension test, mouse model of Angelman syndrome; type: in vivo; details: CBDA 20 mg/kg i.p., vs AS vehicle, FIG. 15
Experimental: as §1, §2
Tail suspension: The tail suspension test assesses depressive-like behaviour in mice. Mice were individually suspended by the tail on a horizontal bar (50 cm from floor) using adhesive tape placed approximately 4 cm from the tip of the tail. The duration of immobility was recorded in seconds over a period of 6 minutes by a time recorder. Immobility time was defined as the absence of escape-oriented behaviour.

animal models of seizure = details: co-pending UK patent application GB1514079.1; cited from earlier work

With `C=C(C)[C@@H]1CCC(C)=C[C@H]1c1c(O)cc(CCCCC)c(C(=O)O)c1O` [CBDA, Cannabidiolic acid] the preference index ([1]; CBDA 20 mg/kg/day i.p. PND 34-56, VPA rats, FIG. 1C) was “significantly counteracted the impairment in sociability”, the social novelty preference ([1]; CBDA 20 mg/kg/day i.p. PND 34-56, male VPA rats, FIG. 1A) was “statistically significant effect in males on restoration of social novelty preference” and the sociability ([1]; CBDA at both doses (2 and 20 mg/kg/day i.p.) PND 34-56, VPA rats, FIG. 1B) was “significantly reduced the impairment in sociability”. The “short-term memory in the NOR test” value (MeCP2 KO mice; MeCP2 KO mice, CBDA 2 and 20 mg/kg i.p., each time point (PND 41, 56, 66), 30 min inter-trial interval, FIG. 10) was “reverted the cognitive impairment in short-term memory”, the “long-term memory in the NOR test” value (MeCP2 KO mice; MeCP2 KO mice, both doses of CBDA (2 and 20 mg/kg i.p.), 24 hours inter-trial interval, FIG. 11) was “counteract the cognitive impairment in long-term memory” and the “short-term recognition memory in the NOR test” value (MeCP2 KO mice; WT littermates, CBDA 2 and 20 mg/kg i.p., FIG. 10) was “without affecting recognition memory”. For the same molecule, the “long-term recognition memory in the NOR test” value (MeCP2 KO mice; WT littermates, both doses of CBDA, FIG. 11) was “without affecting recognition memory”, the discrimination index (Ube3am-/p+ (AS) mice [2]) was “increased the discrimination index” and the “duration of immobility time” value (Ube3am-/p+ (AS) mice [3]) was “significantly reduced the duration of immobility time”. The “efficacy in animal models of seizure” value (animal models of seizure) was “effective in animal models of seizure”.
